Values joined by “and” are separate entries in the source; they are usually repeats but may differ in a detail not shown here. Equal entries are not always repeated.
Tested on: HSSY-II tumor spheroid viability
Test: Anticancer human tumor HSSY-II cell line growth inhibition;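 further: spheroids exposed to compounds for seven days before reading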;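 on viability, T/C: percent of DMSO vehicle control viability so 100% = untreated level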
Settings: spheroids with HUVEC and MSC; for viability, T/C: stronger effect = lower value
Procedure, shortened: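 Complex tumor spheroids combined malignant cells with endothelial cells and mesenchymal stem cells. DNA-damaging drugs and DNA repair inhibitors were tested alone and in combination, at half-log dilutions down from clinical Cmax (top 10 microM if Cmax unknown), 0.25% DMSO final.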

[1] = curve of first compound, second compound 1 µM
[2] = curve of first compound, second compound 3.16 µM
[3] = curve of first compound, second compound 10 µM
[4] = curve of first compound, second compound 31.6 µM
[5] = curve of first compound, second compound 100 µM
[6] = second compound 1 µM, first compound 0.0316 µM
[7] = second compound 1 µM, first compound 0.1 µM
[8] = second compound 1 µM, first compound 0.316 µM
[9] = second compound 1 µM, first compound 1 µM
[10] = second compound 1 µM, first compound 3.16 µM
[11] = second compound 1 µM, first compound 10 µM
[12] = second compound 3.16 µM, first compound 0.0316 µM
[13] = second compound 3.16 µM, first compound 0.1 µM
[14] = second compound 3.16 µM, first compound 0.316 µM
[15] = second compound 3.16 µM, first compound 1 µM
[16] = second compound 3.16 µM, first compound 3.16 µM
[17] = second compound 3.16 µM, first compound 10 µM
[18] = second compound 10 µM, first compound 0.0316 µM
[19] = second compound 10 µM, first compound 0.1 µM
[20] = second compound 10 µM, first compound 0.316 µM
[21] = second compound 10 µM, first compound 1 µM
[22] = second compound 10 µM, first compound 3.16 µM
[23] = second compound 10 µM, first compound 10 µM
[24] = second compound 31.6 µM, first compound 0.0316 µM
[25] = second compound 31.6 µM, first compound 0.1 µM
[26] = second compound 31.6 µM, first compound 0.316 µM
[27] = second compound 31.6 µM, first compound 1 µM
[28] = second compound 31.6 µM, first compound 3.16 µM
[29] = second compound 31.6 µM, first compound 10 µM
[30] = second compound 100 µM, first compound 0.0316 µM
[31] = second compound 100 µM, first compound 0.1 µM
[32] = second compound 100 µM, first compound 0.316 µM
[33] = second compound 100 µM, first compound 1 µM
[34] = second compound 100 µM, first compound 3.16 µM
[35] = second compound 100 µM, first compound 10 µM

CNCc1ccc(-c2cc(-c3nc(-c4ccc(S(=O)(=O)C(C)C)cc4)cnc3N)on2)cc1 + CC[C@@]1(O)C(=O)OCc2c1cc1n(c2=O)Cc2cc3c(CN(C)C)c(O)ccc3nc2-1
IC50 (curve of first compound, second compound 0.003 µM): 18.6 nM
IC50 (curve of first compound, second compound 0.00949 µM): < 9.49 nM
IC50 (curve of first compound, second compound 0.03 µM): < 9.49 nM
IC50 (curve of first compound, second compound 0.0949 µM): < 9.49 nM
IC50 (curve of first compound, second compound 0.3 µM): < 9.49 nM
viability, T/C (second compound 0.003 µM, first compound 0.00949 µM): 77.6%
viability, T/C (second compound 0.003 µM, first compound 0.03 µM): 30.6%
viability, T/C (second compound 0.003 µM, first compound 0.0949 µM): 3.68%
viability, T/C (second compound 0.003 µM, first compound 0.3 µM): 4.09%
viability, T/C (second compound 0.003 µM, first compound 0.949 µM): 2.62%
viability, T/C (second compound 0.003 µM, first compound 3 µM): 0.44%
viability, T/C (second compound 0.00949 µM, first compound 0.00949 µM): 32.7%
viability, T/C (second compound 0.00949 µM, first compound 0.03 µM): 9.13%
viability, T/C (second compound 0.00949 µM, first compound 0.0949 µM): 3.26%
viability, T/C (second compound 0.00949 µM, first compound 0.3 µM): 4.02%
viability, T/C (second compound 0.00949 µM, first compound 0.949 µM): 2.08%
viability, T/C (second compound 0.00949 µM, first compound 3 µM): 0.35%
viability, T/C (second compound 0.03 µM, first compound 0.00949 µM): 6.55%
viability, T/C (second compound 0.03 µM, first compound 0.03 µM): 4.21%
viability, T/C (second compound 0.03 µM, first compound 0.0949 µM): 3.3%
viability, T/C (second compound 0.03 µM, first compound 0.3 µM): 3.14%
viability, T/C (second compound 0.03 µM, first compound 0.949 µM): 2.37%
viability, T/C (second compound 0.03 µM, first compound 3 µM): 0.13%
viability, T/C (second compound 0.0949 µM, first compound 0.00949 µM): 4.97%
viability, T/C (second compound 0.0949 µM, first compound 0.03 µM): 3.98%
viability, T/C (second compound 0.0949 µM, first compound 0.0949 µM): 4.07%
viability, T/C (second compound 0.0949 µM, first compound 0.3 µM): 3.55%
viability, T/C (second compound 0.0949 µM, first compound 0.949 µM): 2.72%
viability, T/C (second compound 0.0949 µM, first compound 3 µM): 0.42%
viability, T/C (second compound 0.3 µM, first compound 0.00949 µM): 4.42%
viability, T/C (second compound 0.3 µM, first compound 0.03 µM): 3.95%
viability, T/C (second compound 0.3 µM, first compound 0.0949 µM): 3.59%
viability, T/C (second compound 0.3 µM, first compound 0.3 µM): 3.99%
viability, T/C (second compound 0.3 µM, first compound 0.949 µM): 3.16%
viability, T/C (second compound 0.3 µM, first compound 3 µM): 0.24%

COc1cc(C)[nH]c(=O)c1CN1CCc2c(Cl)cc(C(OC)C3COC3)c(Cl)c2C1=O (centres undefined)
viability, T/C (compound 0.0316 µM): 79.4% and 99.8% and 97.9%
viability, T/C (compound 0.1 µM): 115% and 84.8% and 86.5%
viability, T/C (compound 0.316 µM): 99.7% and 76.2% and 78.9%
viability, T/C (compound 1 µM): 93.8% and 63.5% and 68.3%
viability, T/C (compound 3.16 µM): 94.8% and 60.8% and 62.7%
viability, T/C (compound 10 µM): 91.7% and 62.6% and 64.4%
IC50 (curve of compound): > 10000 nM

COc1ccc([C@@H](O)c2cc(-c3ncnc4cc(N5CCOCC5)ccc34)c(F)cc2Cl)nn1 + Cn1nnc2c(C(N)=O)ncn2c1=O
IC50 [1]: 2230 nM
IC50 [2]: 1920 nM
IC50 [3]: 1910 nM
IC50 [4]: 1880 nM
IC50 [5]: 1060 nM
viability, T/C [6]: 102%
viability, T/C [7]: 95.8%
viability, T/C [8]: 90.8%
viability, T/C [9]: 64.5%
viability, T/C [10]: 44%
viability, T/C [11]: 13.5%
viability, T/C [12]: 100%
viability, T/C [13]: 94.3%
viability, T/C [14]: 88.7%
viability, T/C [15]: 63.5%
viability, T/C [16]: 39.4%
viability, T/C [17]: 16.8%
viability, T/C [18]: 94%
viability, T/C [19]: 92.1%
viability, T/C [20]: 89.6%
viability, T/C [21]: 66.6%
viability, T/C [22]: 36.8%
viability, T/C [23]: 15.9%
viability, T/C [24]: 98%
viability, T/C [25]: 98.2%
viability, T/C [26]: 81.5%
viability, T/C [27]: 64.8%
viability, T/C [28]: 38.5%
viability, T/C [29]: 20.6%
viability, T/C [30]: 83.2%
viability, T/C [31]: 83%
viability, T/C [32]: 70.7%
viability, T/C [33]: 48%
viability, T/C [34]: 32.3%
viability, T/C [35]: 12.8%

COc1cc(C)[nH]c(=O)c1CN1CCc2c(Cl)cc(C(OC)C3COC3)c(Cl)c2C1=O (centres undefined) + Cn1nnc2c(C(N)=O)ncn2c1=O
IC50 [1]: > 10000 nM
IC50 [2]: > 10000 nM
IC50 [3]: > 10000 nM
IC50 [4]: > 10000 nM
IC50 [5]: > 10000 nM
viability, T/C [6]: 96.7%
viability, T/C [7]: 93.1%
viability, T/C [8]: 69.1%
viability, T/C [9]: 69.2%
viability, T/C [10]: 63.2%
viability, T/C [11]: 63%
viability, T/C [12]: 96.7%
viability, T/C [13]: 84.2%
viability, T/C [14]: 76.5%
viability, T/C [15]: 66.2%
viability, T/C [16]: 64.6%
viability, T/C [17]: 60.9%
viability, T/C [18]: 95.3%
viability, T/C [19]: 94.2%
viability, T/C [20]: 75.6%
viability, T/C [21]: 66.8%
viability, T/C [22]: 62.7%
viability, T/C [23]: 63%
viability, T/C [24]: 99.7%
viability, T/C [25]: 96.3%
viability, T/C [26]: 76.9%
viability, T/C [27]: 66.8%
viability, T/C [28]: 65.8%
viability, T/C [29]: 64.6%
viability, T/C [30]: 96.7%
viability, T/C [31]: 91.4%
viability, T/C [32]: 74.8%
viability, T/C [33]: 67.4%
viability, T/C [34]: 68.9%
viability, T/C [35]: 63.7%

CNCc1ccc(-c2cc(-c3nc(-c4ccc(S(=O)(=O)C(C)C)cc4)cnc3N)on2)cc1
viability, T/C (compound 0.00949 µM): 97.3% and 98% and 97.5%
viability, T/C (compound 0.03 µM): 74.1% and 79.3% and 68.2%
viability, T/C (compound 0.0949 µM): 8.25% and 5.12% and 7.65%
viability, T/C (compound 0.3 µM): 4.73% and 4.15% and 5.89%
viability, T/C (compound 0.949 µM): 1.97% and 2.75% and 1.7%
viability, T/C (compound 3 µM): 0.23% (2×) and 0.46%
IC50 (curve of compound): 45.8 nM and 47.3 nM and 42.4 nM
